# US8013156B2 (Exelixis, Inc., priority 2003, dated 2011)
# Biological target: Tie-2 (Homo sapiens, UniProt Q02763)
# Assay: Tie-2 tyrosine kinase activity assay (luciferase/luciferin ATP consumption with pEY substrate, or 33P-ATP incorporation)
# Assay type: biochemical
# Settings: human enzyme Tie-2
# Outline: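 Values are IC50 categories (A <50 nM to D ≥10,000 nM), with Ki obtainable by fitting rates to a tight-binding model. Assay formats: 33P-ATP phosphate transfer to adsorbed generic substrate counted by scintillation, or luciferase-detected ATP depletion using pEY.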
# Sequence of Tie-2 (Q02763 23-1124): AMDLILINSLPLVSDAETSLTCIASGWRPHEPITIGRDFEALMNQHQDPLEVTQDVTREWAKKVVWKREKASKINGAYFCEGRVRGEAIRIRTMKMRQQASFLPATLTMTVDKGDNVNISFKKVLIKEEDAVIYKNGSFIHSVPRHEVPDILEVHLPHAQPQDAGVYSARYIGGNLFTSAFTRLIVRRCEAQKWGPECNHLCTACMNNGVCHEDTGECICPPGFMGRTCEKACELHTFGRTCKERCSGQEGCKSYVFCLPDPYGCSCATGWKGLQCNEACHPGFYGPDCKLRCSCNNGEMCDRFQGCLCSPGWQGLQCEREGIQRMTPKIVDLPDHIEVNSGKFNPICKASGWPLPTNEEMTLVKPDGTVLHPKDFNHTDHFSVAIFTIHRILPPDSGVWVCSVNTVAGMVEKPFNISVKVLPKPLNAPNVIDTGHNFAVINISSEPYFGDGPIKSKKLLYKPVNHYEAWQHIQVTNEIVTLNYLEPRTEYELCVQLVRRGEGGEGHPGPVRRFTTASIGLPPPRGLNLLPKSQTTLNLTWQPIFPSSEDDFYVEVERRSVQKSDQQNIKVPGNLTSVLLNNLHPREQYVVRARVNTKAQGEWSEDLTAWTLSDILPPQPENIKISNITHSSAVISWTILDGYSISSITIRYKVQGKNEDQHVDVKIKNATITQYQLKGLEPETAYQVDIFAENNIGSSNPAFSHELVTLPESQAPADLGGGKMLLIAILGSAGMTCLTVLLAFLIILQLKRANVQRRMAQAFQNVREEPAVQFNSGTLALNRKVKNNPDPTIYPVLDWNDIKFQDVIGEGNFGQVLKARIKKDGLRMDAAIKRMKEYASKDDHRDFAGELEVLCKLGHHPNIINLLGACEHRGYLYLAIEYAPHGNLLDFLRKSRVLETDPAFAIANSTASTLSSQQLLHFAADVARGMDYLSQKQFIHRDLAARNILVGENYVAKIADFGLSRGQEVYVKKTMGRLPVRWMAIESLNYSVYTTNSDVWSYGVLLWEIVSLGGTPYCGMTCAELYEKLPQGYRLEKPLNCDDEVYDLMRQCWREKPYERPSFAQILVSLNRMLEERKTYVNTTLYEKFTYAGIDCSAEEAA
row,SMILES,IC50
1,"Nc1nccc(COc2ccccc2N2CCN(C(=O)Nc3ccccc3)CC2)n1 [Example 270, 4-(2-{[(2-aminopyrimidin-4-yl)methyl]oxy}phenyl)-N-phenylpiperazine-1-carboxamide]",1000 to 10000 nM
2,"Nc1nccc(COc2ccccc2N2CCN(C(=O)Nc3cc(Cl)cc(Cl)c3)CC2)n1 [Example 271, 4-(2-{[(2-aminopyrimidin-4-yl)methyl]oxy}phenyl)-N-(3,5-dichlorophenyl)piperazine-1-carboxamide]",< 50 nM
3,"Nc1nccc(COc2ccccc2N2CCN(C(=O)Nc3cc(F)cc(C(F)(F)F)c3)CC2)n1 [Example 272, 4-(2-{[(2-aminopyrimidin-4-yl)methyl]oxy}phenyl)-N-[3-fluoro-5-(trifluoromethyl)phenyl]piperazine-1-carboxamide]",< 50 nM
4,"COc1cc2nccc(COc3nsnc3N3CCN(C(=O)Nc4cc(C(F)(F)F)cc(C(F)(F)F)c4)CC3)c2cc1OC [Example 273, 4-[4-({[6,7-bis(methyloxy)quinolin-4-yl]methyl}oxy)-1,2,5-thiadiazol-3-yl]-N-[3,5-bis(trifluoromethyl)phenyl]piperazine-1-carboxamide]",< 50 nM
5,"Nc1nccc(COc2nsnc2N2CCN(C(=O)Cc3cc(C(F)(F)F)cc(C(F)(F)F)c3)CC2)n1 [Example 274, 4-({[4-(4-{[3,5-bis(trifluoromethyl)phenyl]acetyl}piperazin-1-yl)-1,2,5-thiadiazol-3-yl]oxy}methyl)pyrimidin-2-amine]",50 to 1000 nM
6,"NC(=O)c1cnc(OCc2ccnc(N)n2)c(N2CCN(C(=O)Nc3cc(C(F)(F)F)cc(C(F)(F)F)c3)CC2)n1 [Example 275, 5-{[(2-aminopyrimidin-4-yl)methyl]oxy}-6-[4-({[3,5-bis(trifluoromethyl)phenyl]amino}carbonyl)piperazin-1-yl]pyrazine-2-carboxamide]",< 50 nM
7,"COc1cc2nccc(Oc3nsnc3N3CCN(C(=O)Nc4cc(C(F)(F)F)cc(C(F)(F)F)c4)CC3)c2cc1OC [Example 276, 4-(4-{[6,7-bis(methyloxy)quinolin-4-yl]oxy}-1,2,5-thiadiazol-3-yl)-N-[3,5-bis(trifluoromethyl)phenyl]piperazine-1-carboxamide]",< 50 nM
8,"CCc1cc(NC(=O)N2CCN(c3ccccc3OCc3ccnc(N)n3)CC2)cc(C(F)(F)F)c1 [Example 277, 4-(2-{[(2-aminopyrimidin-4-yl)methyl]oxy}phenyl)-N-[3-ethyl-5-(trifluoromethyl)phenyl]piperazine-1-carboxamide]",< 50 nM
9,"CCc1ccc(F)c(NC(=O)N2CCN(c3ccccc3OCc3ccnc(N)n3)CC2)c1 [Example 278, 4-(2-{[(2-aminopyrimidin-4-yl)methyl]oxy}phenyl)-N-(5-ethyl-2-fluorophenyl)piperazine-1-carboxamide]",< 50 nM
10,"CCc1cc(CC)cc(NC(=O)N2CCN(c3ccccc3OCc3ccnc(N)n3)CC2)c1 [Example 279, 4-(2-{[(2-aminopyrimidin-4-yl)methyl]oxy}phenyl)-N-(3,5-diethylphenyl)piperazine-1-carboxamide]",< 50 nM
11,"Nc1nccc(COc2nsnc2N2CCN(C(=O)Cc3ccc4ccccc4c3)CC2)n1 [Example 280, 4-[({4-[4-(naphthalen-2-ylacetyl)piperazin-1-yl]-1,2,5-thiadiazol-3-yl}oxy)methyl]pyrimidin-2-amine]",≥ 10000 nM
12,"CCc1cc(Cl)cc(NC(=O)N2CCN(c3ccccc3OCc3ccnc(N)n3)CC2)c1 [Example 281, 4-(2-{[(2-aminopyrimidin-4-yl)methyl]oxy}phenyl)-N-(3-chloro-5-ethylphenyl)piperazine-1-carboxamide]",< 50 nM
